What was measured:
Polygonum = experiment: Post-emergence test/greenhouse; type: in vivo; details: 60 g of a.i./ha, after three weeks
Procedure: (§1) To produce a suitable preparation of active compound, 1 part by weight of active compound is mixed with the stated amount of solvent, the stated amount of emulsifier is added and the concentrate is diluted with water to the desired concentration.
(§2) Test plants of a height of 5 -15 cm are sprayed with the preparation of active compound such that the particular amounts of active compound desired are applied per unit area. The concentration of the spray liquor is chosen so that the particular amounts of active compound desired are applied in 1000 l of water/ha.
(§3) After three weeks, the degree of damage to the plants is rated in % damage in comparison to the development of the untreated control.
(§4) 0%=no effect (like untreated control)

Echinochloa [1] = experiment: Post-emergence test/greenhouse; type: in vivo; details: 60 g of a.i./ha, after three weeks
Procedure: as §1, §2, §3, §4

Sorghum = experiment: Post-emergence test/greenhouse; type: in vivo; details: 60 g of a.i./ha, after three weeks
Procedure: as §1, §2, §3, §4

Veronica [2] = experiment: Post-emergence test/greenhouse; type: in vivo; details: 60 g of a.i./ha, after three weeks
Procedure: as §1, §2, §3, §4

Amaranthus [3] = experiment: Post-emergence test/greenhouse; type: in vivo; details: 504 h, after three weeks, read-out: degree of damage, Amaranthus; for pest or weed control at 60 g/ha: 60 g of a.i./ha; for pest or weed control at 125 g/ha: 125 g of a.i./ha
Procedure: as §1, §2, §3, §4

weeds [4] = experiment: Pre-emergence test, activity against weeds; type: in vivo
Procedure: as §1
(§5) Seeds of the test plants are sown in normal soil. After about 24 hours, the soil is sprayed with the preparation of active compound such that the particular amount of active compound desired is applied per unit area. The concentration of the spray liquor is chosen so that the particular amount of active compound desired is applied in 1000 liters of water per hectare.
as §3, §4

Setaria [5] = experiment: Pre-emergence test/greenhouse; type: in vivo; details: after three weeks
Procedure: as §1, §5, §3, §4

Echinochloa [6] = experiment: Pre-emergence test/greenhouse; type: in vivo; details: 504 h, after three weeks, read-out: degree of damage, Echinochloa; for pest or weed control at 125 g/ha: 125 g of a.i./ha
Procedure: as §1, §5, §3, §4

Matricaria [7] = experiment: Pre-emergence test/greenhouse; type: in vivo; details: 504 h, after three weeks, read-out: degree of damage, Matricaria; for pest or weed control at 125 g/ha: 125 g of a.i./ha
Procedure: as §1, §5, §3, §4

Veronica [8] = experiment: Pre-emergence test/greenhouse; type: in vivo; details: 504 h, after three weeks, read-out: degree of damage, Veronica; for pest or weed control at 125 g/ha: 125 g of a.i./ha
Procedure: as §1, §5, §3, §4

Amaranthus [9] = experiment: Pre-emergence test/greenhouse; type: in vivo; details: 504 h, after three weeks, read-out: degree of damage, Amaranthus; for pest or weed control at 125 g/ha: 125 g of a.i./ha
Procedure: as §1, §5, §3, §4

weeds [10] = experiment: Post-emergence test, activity against weeds; type: in vivo
Procedure: as §1, §2, §3, §4

Setaria [11] = experiment: Post-emergence test/greenhouse; type: in vivo; details: after three weeks
Procedure: as §1, §2, §3, §4

Solanum = experiment: Post-emergence test/greenhouse; type: in vivo; details: 504 h, after three weeks, read-out: degree of damage, Solanum; for pest or weed control at 60 g/ha: 60 g of a.i./ha; for pest or weed control at 125 g/ha: 125 g of a.i./ha
Procedure: as §1, §2, §3, §4

Abutilon = experiment: Post-emergence test/greenhouse; type: in vivo; details: 504 h, after three weeks, read-out: degree of damage, Abutilon; for pest or weed control at 60 g/ha: 60 g of a.i./ha; for pest or weed control at 125 g/ha: 125 g of a.i./ha
Procedure: as §1, §2, §3, §4

Stellaria = experiment: Post-emergence test/greenhouse; type: in vivo; details: 504 h, after three weeks, read-out: degree of damage, Stellaria; for pest or weed control at 60 g/ha: 60 g of a.i./ha; for pest or weed control at 125 g/ha: 125 g of a.i./ha
Procedure: as §1, §2, §3, §4

Chenopodium [12] = experiment: Post-emergence test/greenhouse; type: in vivo; details: 504 h, after three weeks, read-out: degree of damage, Chenopodium; for pest or weed control at 60 g/ha: 60 g of a.i./ha; for pest or weed control at 125 g/ha: 125 g of a.i./ha
Procedure: as §1, §2, §3, §4

Chenopodium [13] = experiment: Pre-emergence test/greenhouse; type: in vivo; details: after three weeks
Procedure: as §1, §5, §3, §4

Digitaria = experiment: Pre-emergence test/greenhouse; type: in vivo; details: 125 g of a.i./ha, after three weeks
Procedure: as §1, §5, §3, §4

Sugar beet = experiment: Pre-emergence test/greenhouse; type: in vivo; details: 125 g of a.i./ha, after three weeks, 0%=no effect, 100%=total destruction
Procedure: as §1, §5, §3, §4

Maize = experiment: Pre-emergence test/greenhouse; type: in vivo; details: 125 g of a.i./ha, after three weeks, 0%=no effect, 100%=total destruction
Procedure: as §1, §5, §3, §4

Matricaria [14] = experiment: Post-emergence test/greenhouse; type: in vivo; details: 60 g of a.i./ha, after three weeks
Procedure: as §1, §2, §3, §4

Row | Structure (SMILES) | activity against weeds (weeds [4]) | activity against weeds (weeds [10]) | degree of damage, Chenopodium (Chenopodium [13]; 125 g of a.i./ha) | pest or weed control at 125 g/ha (Echinochloa [6]) | pest or weed control at 125 g/ha (Matricaria [7]) | pest or weed control at 125 g/ha (Veronica [8]) | pest or weed control at 125 g/ha (Amaranthus [9]) | pest or weed control at 125 g/ha (Solanum) | pest or weed control at 125 g/ha (Abutilon) | pest or weed control at 125 g/ha (Amaranthus [3]) | pest or weed control at 125 g/ha (Stellaria) | further results
1 | CCOc1nn(C(=O)NS(=O)(=O)/N=c2\sccn2CCCF)c(=O)n1C [Example 1] | very strong activity | very strong activity | – | – | – | – | – | – | – | – | – | melting point: 178 °C; degree of damage, Polygonum (Polygonum): 90%; degree of damage, Echinochloa (Echinochloa [1]): 95%; degree of damage, Sorghum (Sorghum): 95%; degree of damage, Veronica (Veronica [2]): 90%; pest or weed control at 60 g/ha (Amaranthus [3]): 95%; degree of damage, Setaria (Setaria [5]; 60 g of a.i./ha): 100%; pest or weed control at 60 g/ha (Echinochloa [6]; 60 g of a.i./ha): 100%; pest or weed control at 60 g/ha (Matricaria [7]; 60 g of a.i./ha): 100%; pest or weed control at 60 g/ha (Veronica [8]; 60 g of a.i./ha): 100%; pest or weed control at 60 g/ha (Amaranthus [9]; 60 g of a.i./ha): 100%
2 | CCCc1nn(C(=O)NS(=O)(=O)/N=c2\sccn2CCC)c(=O)n1C [Example 2] | – | very strong activity | – | – | – | – | – | – | – | – | – | degree of damage, Setaria (Setaria [11]; 60 g of a.i./ha): 90%; pest or weed control at 60 g/ha (Solanum): 95%; pest or weed control at 60 g/ha (Abutilon): 90%; pest or weed control at 60 g/ha (Amaranthus [3]): 90%; pest or weed control at 60 g/ha (Stellaria): 90%
3 | CCCn1ccs/c1=N\S(=O)(=O)NC(=O)n1nc(OC(C)C)n(C)c1=O [Example 9] | – | very strong activity | – | – | – | – | – | – | – | – | – | pest or weed control at 60 g/ha (Chenopodium [12]): 80%; pest or weed control at 60 g/ha (Abutilon): 90%; pest or weed control at 60 g/ha (Amaranthus [3]): 90%; pest or weed control at 60 g/ha (Stellaria): 90%
4 | CCCn1ccs/c1=N\S(=O)(=O)NC(=O)n1nc(OC)n(C2CC2)c1=O [Example 29] | very strong activity | – | 100% | 95% | 95% | 100% | 100% | – | – | – | – | –
5 | CCCn1ccs/c1=N\S(=O)(=O)NC(=O)n1nc(OCC)n(C2CC2)c1=O [Example 30] | very strong activity | – | 100% | 95% | 100% | 100% | 100% | – | – | – | – | degree of damage, Digitaria (Digitaria): 90%
6 | CCCn1ccs/c1=N\S(=O)(=O)NC(=O)n1nc(OC(C)C)n(C2CC2)c1=O [Example 33] | very strong activity | very strong activity | 100% | 80% | 100% | 95% | 100% | 95% | 100% | 100% | 95% | degree of damage, Setaria (Setaria [11]; 125 g of a.i./ha): 80%; pest or weed control at 125 g/ha (Chenopodium [12]): 100%
7 | CCCn1ccs/c1=N\S(=O)(=O)NC(=O)n1nc(OC2CC2)n(C2CC2)c1=O [Example 34] | – | very strong activity | – | – | – | – | – | 100% | 95% | 100% | 100% | degree of damage, Setaria (Setaria [11]; 125 g of a.i./ha): 70%; pest or weed control at 125 g/ha (Chenopodium [12]): 100%
8 | CCCn1ccs/c1=N\S(=O)(=O)NC(=O)n1nc(C2CC2)n(C)c1=O [Example 41] | – | very strong activity | – | – | – | – | – | 90% | 90% | 90% | 95% | degree of damage, Setaria (Setaria [11]; 125 g of a.i./ha): 70%
9 | CCCn1ccs/c1=N\S(=O)(=O)NC(=O)n1nc(OCC2CC2)n(C)c1=O [Example 48] | – | very strong activity | – | – | – | – | – | 80% | 80% | 95% | 80% | pest or weed control at 125 g/ha (Chenopodium [12]): 100%
10 | CCCn1ccs/c1=N\S(=O)(=O)NC(=O)n1nc(OCC)n(CC)c1=O [Example 49] | – | very strong activity | – | – | – | – | – | 95% | 70% | 100% | 95% | pest or weed control at 125 g/ha (Chenopodium [12]): 100%
11 | C/C=C/c1nn(C(=O)NS(=O)(=O)/N=c2\sccn2CCC)c(=O)n1C1CC1 [Example 51] | very strong activity | – | 95% | – | 100% | 100% | 100% | – | – | – | – | –
12 | CCCc1nn(C(=O)NS(=O)(=O)/N=c2\sccn2CCC)c(=O)n1C1CC1 [Example 55] | – | very strong activity | – | – | – | – | – | 90% | 95% | 100% | 100% | pest or weed control at 125 g/ha (Chenopodium [12]): 100%
13 | CCCn1ccs/c1=N\S(=O)(=O)NC(=O)n1nc(OCC)n(C2CC2)c1=O [Example 56] | – | – | – | – | – | – | – | – | – | – | – | degree of damage, Setaria (Setaria [5]; 250 g of a.i./ha): 100%; degree of damage, Chenopodium (Chenopodium [13]; 250 g of a.i./ha): 100%; pest or weed control at 250 g/ha (Matricaria [7]; 250 g of a.i./ha): 100%; pest or weed control at 250 g/ha (Veronica [8]; 250 g of a.i./ha): 100%; pest or weed control at 250 g/ha (Amaranthus [9]; 250 g of a.i./ha): 100%
14 | COc1nn(C(=O)NS(=O)(=O)/N=c2\sccn2CCCF)c(=O)n1C [Example 124] | very strong activity | – | – | 90% | 100% | 95% | 70% | – | – | – | – | melting point: 189 °C; degree of damage, Sugar beet (Sugar beet): 0%; degree of damage, Setaria (Setaria [5]; 125 g of a.i./ha): 95%; degree of damage, Maize (Maize): 0%
15 | CC(C)Oc1nn(C(=O)NS(=O)(=O)/N=c2/sccn2CCCF)c(=O)n1C [Example 125] | very strong activity | very strong activity | 95% | 90% | 100% | 100% | 70% | – | – | – | – | melting point: 170 °C; degree of damage, Polygonum (Polygonum): 90%; pest or weed control at 60 g/ha (Solanum): 90%; pest or weed control at 60 g/ha (Abutilon): 90%; pest or weed control at 60 g/ha (Stellaria): 90%
16 | CCOc1nn(C(=O)NS(=O)(=O)/N=c2\sccn2CCCF)c(=O)n1C1CC1 [Example 130] | very strong activity | very strong activity | 100% | 100% | 100% | 100% | 100% | – | – | – | – | melting point: 180 °C; pest or weed control at 60 g/ha (Chenopodium [12]): 100%; degree of damage, Matricaria (Matricaria [14]): 100%; degree of damage, Veronica (Veronica [2]): 100%; pest or weed control at 60 g/ha (Abutilon): 95%; pest or weed control at 60 g/ha (Amaranthus [3]): 100%; pest or weed control at 60 g/ha (Stellaria): 95%
17 | CC(C)Oc1nn(C(=O)NS(=O)(=O)/N=c2\sccn2CCCF)c(=O)n1C1CC1 [Example 131] | very strong activity | very strong activity | 95% | 80% | 100% | 95% | 100% | – | – | – | – | melting point: 154 °C; pest or weed control at 60 g/ha (Chenopodium [12]): 95%; degree of damage, Matricaria (Matricaria [14]): 95%; degree of damage, Veronica (Veronica [2]): 90%; pest or weed control at 60 g/ha (Abutilon): 90%; pest or weed control at 60 g/ha (Amaranthus [3]): 100%; pest or weed control at 60 g/ha (Stellaria): 95%
